Consider two compounds from US12275734B1, “Pleuromutilin onium salt derivative containing a 3H-imidazo[4,5-c]pyridine side chain, and a preparation method and application thereof” (SHAANXI UNIVERSITY OF SCIENCE AND TECHNOLOGY, priority 2024, dated 2025).

For orientation: MIC means the smallest concentration in the dilution series that meets the test's criterion for growth inhibition. In general, CC50 refers to the concentration that lowers cell viability or growth by half.

Assay type in all cases: cell-based
The subject of data set [1] is vancomycin-resistant Enterococcus-80. The data set is described as follows: MIC, clinical isolates. On the procedure: (§1) The minimum inhibitory concentration of 3H-imidazo[4,5-C]pyridine pleuromutilin onium salt derivatives against the tested pathogenic microorganisms were determined by broth microdilution method, with valnemulin and retapamulin as positive controls.
(§2) The experimental strains included resistant Gram-positive bacteria: Methicillin-resistant S. aureus ATCC 33591; Methicillin-resistant S. aureus ATCC 43300; S. aureus ATCC 29213; Methicillin-resistant S. epidermidis ATCC 51625. Resistant Gram-negative bacteria: A. baumannii ATCC 19606; S. enterica ATCC14028; E. coli ATCC 25922; E. coli CMCC 44103. 9 clinically isolated resistant strains: MRSA-171; MRSA-575; MRSA-206; MRSA-222; MRSA-596; VRE-80; MDR-PA-126; MDR-KP-893; CR-AB-882.
(§3) (1) Preparation of MHB medium: Weigh 18.0 g of MHB medium pre-made powder, add it to 1 L of distilled water, heat and boil until completely dissolved, divide it into conical bottles, sterilize it by high pressure at 121° C. for 15 minutes, and set aside.
(§4) (2) Cultivate the experimental strain to the logarithmic growth phase: Under sterile conditions, inoculate the experimental strain into fresh MHB medium and culture it in a 37° C. constant temperature and humidity incubator for 16-24 hours. Adjust the bacterial solution concentration to 1.5×10^8 CFU/mL and then dilute it 200 times for later use.
(§5) (3) Preparation of storage solution: Weigh the sample to be tested, dissolve it in 1% DMSO solution, and prepare a storage solution with a concentration of 2560 μg/mL; weigh the positive control, dissolve it in sterile distilled water, and prepare a storage solution with a concentration of 2560 μg/mL.
(§6) (4) Preparation of bacterial suspension: Under sterile conditions, the experimental strain cultured to the logarithmic growth phase was calibrated to a 0.5 McFarland unit turbidity standard using MHB medium and then diluted at a ratio of 1:200 to prepare a bacterial suspension with a concentration of 5×10^5 CFU/mL for later use.
(§7) (5) Determination of MIC by two-fold microdilution method: Take a sterile 96-well plate, add 10 μL of the test compound at a concentration of 2560 μg/mL, and perform serial dilutions by the two-fold dilution method. At the same time, set up a negative control group without drug. Then add 190 μL of diluted bacterial solution to each well, so that the final bacterial solution concentration in each well is 5×10^5 CFU/mL, and incubate in a 37° C. constant temperature and humidity chamber for 24 hours.

Data set [2] relates to methicillin-resistant Staphylococcus aureus-206. The data set is described as follows: MIC, clinical isolates. On the procedure: as §1, §2, §3, §4, §5, §6, §7
Data set [3] relates to methicillin-resistant Staphylococcus aureus-222. The data set is described as follows: MIC, clinical isolates. To be noted: MRSA / MRSE. The protocol: as §1, §2, §3, §4, §5, §6, §7
Data set [4] deals with methicillin-resistant Staphylococcus aureus-596. The data set is described as follows: MIC, clinical isolates. The protocol: as §1, §2, §3, §4, §5, §6, §7
For data set [5], the system named is methicillin-resistant Staphylococcus aureus-171. The data set is described as follows: MIC, clinical isolates. On the procedure:
as §1, §2, §3, §4, §5, §6, §7

Data set [6] deals with carbapenem-resistant Acinetobacter baumannii-882. The data set is described as follows: MIC, clinical isolates. The protocol:
as §1, §2, §3, §4, §5, §6, §7

Data set [7] concerns methicillin-resistant Staphylococcus aureus-575. The data set is described as follows: MIC, clinical isolates. On the procedure: as §1, §2, §3, §4, §5, §6, §7
Data set [8] concerns multidrug-resistant Klebsiella pneumoniae-893. The data set is described as follows: MIC, clinical isolates. To be noted: clinical isolate MDR-KP-893. On the procedure:
as §1, §2, §3, §4, §5, §6, §7

The subject of data set [9] is multidrug-resistant Pseudomonas aeruginosa-126. The data set is described as follows: MIC, clinical isolates. On the procedure:
as §1, §2, §3, §4, §5, §6, §7

The test system of data set [10] is A549 Cells. The data set is described as follows: Cytotoxicity, Cell Counting Kit-8. On the procedure:
(§8) Cell Counting Kit-8 was used to evaluate the cytotoxicity of the compounds.
(§9) (4) Cell culture: HepG2, HEK293 and A549 cells were evenly dispersed in culture medium, seeded into 96-well plates, and cultured under appropriate environmental conditions to keep the cells completely attached to the well walls.
(§10) (5) Compound treatment: Add different concentrations of compounds I-8 and I-9 to each well (the concentrations are 0.78, 1.56, 3.13, 6.25, 12.5, 25, 50 and 100 μM, respectively, and perform 6 parallel experiments). Set up a blank control group and a normal control group. After incubation for 24 hours, observe the cell condition, which observed under a microscope.
(§11) (6) CCK-8 solution treatment: Add CCK-8 solution to each well and incubate for 4 hours to allow it to react with the cells.
(§12) (7) Absorbance determination: Use a full-wavelength scanning multifunctional reader, place the 96-well plate in the instrument, oscillate to mix to make the color evenly distributed, and measure the absorbance value at 490 nm.
(§13) (8) Data analysis: Based on the measured absorbance values, the cell survival rate at different concentrations can be calculated. The median cytotoxic concentration was used to evaluate the cytotoxicity of the compound to A549, HEK293 and HepG2 cells.
Background: Tetrazolium dyes change colour on reduction, which living cells bring about.

Data set [11] has as its system HepG2 Cells. The data set is described as follows: Cytotoxicity, Cell Counting Kit-8. The protocol:
as §8, §9, §10, §11, §12, §13

The test system of data set [12] is HEK293 Cells. The data set is described as follows: Cytotoxicity, Cell Counting Kit-8. The protocol: as §8, §9, §10, §11, §12, §13

In brackets after ≈: the same amount, converted by molar mass. Like-named read-outs stand apart in the source and are kept apart here.

Take `C=C[C@]1(C)C[C@@H](OC(=O)CSc2nc3cc[n+](Cc4ccc(C)cc4)cc3[nH]2)[C@]2(C)[C@H](C)CC[C@]3(CCC(=O)[C@H]32)[C@@H](C)[C@@H]1O` [Compound i, 5-(4-methylbenzyl)-2-((2-(((3aR,4R,5R,7S,8S,9R,9aS,12R)-8-hydroxy-4,7,9,12-tetramethyl-3-oxo-7-vinyldecahydro-4,9a-propancyclopenta[8]cyclo-5-yl)oxy)-2-oxoethyl)thio)-3H-imidazo[4,5-C]pyridine-5-ium]: the MIC turned out to be 4 µg/mL in [1] (clinical isolate VRE-80, read-out: Antibacterial activity (MIC) VRE^g); 1 µg/mL in [2] (clinical isolate MRSA-206, read-out: Antibacterial activity (MIC) MRSA^d); 4 µg/mL in data set [3] (clinical isolate MRSA-222, read-out: Antibacterial activity (MIC) MRSE^e); 2 µg/mL in [4] (clinical isolate MRSA-596, read-out: Antibacterial activity (MIC) MRSA^f); 4 µg/mL in data set [5] (clinical isolate MRSA-171, read-out: Antibacterial activity (MIC) MRSA^b); 4 µg/mL in [6] (clinical isolate CR-AB-882, read-out: Antibacterial activity (MIC) CR-AB^j). Moreover, the MIC in [7] (clinical isolate MRSA-575, read-out: Antibacterial activity (MIC) MRSA^c) was 1 µg/mL; in data set [9] (clinical isolate MDR-PA-126, read-out: Antibacterial activity (MIC) MDR-PA^h) it was 4 µg/mL. In data set [8], the “Antibacterial activity (MIC) MDR-KP^i” value is 2 µg/mL. For the same compound, the CC50 in [10] (CCK-8, 24 hours incubation, read-out: CC50 A549 Cells) is more than 100 µM; in data set [11] (CCK-8, 24 hours incubation, read-out: CC50 HepG2 Cells) it was more than 100 µM; in data set [12] (CCK-8, 24 hours incubation, read-out: CC50 HEK293 Cells), 96.4 µM.

As for `C=C[C@]1(C)C[C@@H](OC(=O)CS[C@@H]2C[C@H]3CC[C@@H](C2)N3C)[C@]2(C)[C@H](C)CC[C@]3(CCC(=O)[C@H]32)[C@@H](C)[C@@H]1O` [Retapamulin, reference compound], the MIC in data set [1] (VRE, read-out: Antibacterial activity (MIC) VRE^g) is more than 128 µg/mL; in [2] (MRSA, read-out: Antibacterial activity (MIC) MRSA^d), 64 µg/mL (≈ 124 µM); in [3] (read-out: Antibacterial activity (MIC) MRSE^e) it was 128 µg/mL (≈ 247 µM); in data set [4] (MRSA, read-out: Antibacterial activity (MIC) MRSA^f) it was 32 µg/mL (≈ 61.8 µM); in data set [5] (MRSA, read-out: Antibacterial activity (MIC) MRSA^b), 128 µg/mL (≈ 247 µM); in data set [6] (read-out: Antibacterial activity (MIC) CR-AB^j), 64 µg/mL (≈ 124 µM). The minimum inhibitory concentration (MIC) in data set [7] (MRSA, read-out: Antibacterial activity (MIC) MRSA^c) stood at 32 µg/mL (≈ 61.8 µM); in data set [9] (read-out: Antibacterial activity (MIC) MDR-PA^h) it was 64 µg/mL (≈ 124 µM). Moreover, the “Antibacterial activity (MIC) MDR-KP^i” value in [8] stood at 128 µg/mL. Also, the CC50 in [10] (human, 24 h) is 71.5 µM; in data set [11] (human, 24 h) it was 61.1 µM; in data set [12] (human, 24 h) it was 57.5 µM.
